Assay results published in patent US20190144375A1, “NOVEL CARBOCYCLIC COMPOUNDS AS ROR GAMMA MODULATORS” (Glenmark Pharmaceuticals S.A., priority 2015, published 2019).

Biological target: T1, GST-tagged ROR gamma ligand binding domain (LBD) (Homo sapiens, UniProt P51449)
T1 construct: purchased Invitrogen
T1 sequence (P51449 269-508 limits assumed): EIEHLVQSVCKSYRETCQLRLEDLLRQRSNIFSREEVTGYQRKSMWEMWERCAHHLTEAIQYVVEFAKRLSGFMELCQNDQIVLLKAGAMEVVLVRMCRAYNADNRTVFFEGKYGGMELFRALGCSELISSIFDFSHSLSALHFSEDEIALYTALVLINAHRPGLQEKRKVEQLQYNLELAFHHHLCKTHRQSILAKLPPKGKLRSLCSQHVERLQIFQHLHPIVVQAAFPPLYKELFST
Assay: TR-FRET assay for ROR gamma (LanthaScreen, Fluorescein-D22 co-activator peptide recruitment)
Assay type: biochemical
Details: for inhibition at 1 µM: 1 μM compound; for inhibition at 1 µM / inhibition at 10 µM: TR-FRET ratio 520/495; for inhibition at 10 µM: 10 μM compound; for IC50: dose response curve, class symbols
Source text: The compounds described herein were screened for ROR gamma modulator activity using the TR-FRET assay (LanthaScreen™ available from Invitrogen of Carlsbad, Calif.) as described in JBC 2011, 286, 26: 22707-10; and Drug Metabolism and Disposition 2009, 37, 10: 2069-78.
The assay is based on the principle that binding of the agonist to the ROR gamma causes a conformational change around helix 12 in the ligand binding domain, resulting in higher affinity for the co-activator peptide. ROR gamma being constitutively active, the Fluorescein-D22 co-activator peptide used in the assay is recruited in the absence of a ligand. Binding of the co-activator peptide, causes an increase in the TR-FRET signal while binding of an antagonist decreases the recruitment of the co-activator peptide, causing a decrease in the TR-FRET signal compared to control with no compound. The assay was performed using a two-step procedure, pre-incubation step with the compound followed by the detection step on addition of the anti-GST tagged terbium (Tb) and fluorescein tagged fluorophores as the acceptor.
Test compounds or reference compounds such as T0901317 (Calbiochem) were dissolved in dimethylsulfoxide (DMSO) to prepare 10.0 mM stock solutions and diluted to the desired concentration. The final concentration of DMSO in the reaction was 4% (v/v). The assay mixture was prepared by mixing 10 nM of the GST-tagged ROR gamma ligand binding domain (LBD) in the assay buffer containing 25 mM HEPES, 100 mM NaCl, 5 mM DTT and 0.01% BSA with or without the desired concentration of the compound. The reaction was incubated at 22° C. for 1 hour. The pre-incubation step was terminated by addition of the detection mixture containing 300 nM Fluorescein-D22 co-activator peptide and 10 nM lantha screen Tb-anti GST antibody into the reaction mixture. After shaking for 5 minutes the reaction was further incubated for 1 hour at room temperature and read […] on an Infinite F500 reader as per the kit instructions (Invitrogen). The inhibition of test compound was calculated based on the TR-FRET ratio of 520/495. The activity was calculated as a percent of control reaction. IC50 values were calculated from dose response curve by nonlinear regression analysis using GraphPad Prism software.
Percentage inhibition at concentrations of 1.0 μM and 10.0 μM are given in the table along with IC50 (nM) details for selected examples.

Structure (SMILES)	inhibition at 1 µM [%]	inhibition at 10 µM [%]	IC50 [nM]
CC(O)C(F)(F)c1ccc(CC(=O)Nc2ccc(C(=O)N(C)c3ccc(C4CC4)cc3Cl)cc2)cc1 (stereo not drawn) [Example 38]	92.6	94.8	< 50
Cc1ccc(C2CC2)cc1N(C)C(=O)c1ccc(NC(=O)Cc2ccc(C(F)(F)C(C)O)cc2)cc1 (stereo not drawn) [Example 39]	84.1	92	< 50
CC(O)C(F)(F)c1ccc(CC(=O)Nc2ccc(C(=O)N(C)c3cc(C4CC4)ccc3Cl)cc2)cc1 (stereo not drawn) [Example 40]	90.8	94.3	< 50
